# Key:
# Alternaria tenuis = experiment: MIC on agar, Alternaria tenuis; type: cell-based; conditions: Alternaria alternata, 336 h, beerwort/peptone agar, 28° C., 2 weeks
# Experimental: (§1) N-(Dichlorofluoromethylthio)-3,4-dimethylmaleimide is added in concentrations of 0.1 mg/l to 5,000 mg/l to an agar prepared from beerwort and peptone. After storage at 28° C. and 60 to 70% relative atmospheric humidity for 2 weeks, the MIC is determined. The MIC is the lowest concentration of active compound at which no growth at all of the species of microbe used takes place, and is given in the following table.
# Aspergillus niger = experiment: MIC on agar, Aspergillus niger; type: cell-based; conditions: 336 h, beerwort/peptone agar, 28° C., 2 weeks
# Experimental: as §1
# Aureobasidium pullulans = experiment: MIC on agar, Aureobasidium pullulans; type: cell-based; conditions: 336 h, beerwort/peptone agar, 28° C., 2 weeks
# Experimental: as §1
# Chaetomium globosum = experiment: MIC on agar, Chaetomium globosum; type: cell-based; conditions: 336 h, beerwort/peptone agar, 28° C., 2 weeks
# Experimental: as §1
# Coniophora puteana = experiment: MIC on agar, Coniophora puteana; type: cell-based; conditions: 336 h, beerwort/peptone agar, 28° C., 2 weeks
# Experimental: as §1
# Lentinus tigrinus = experiment: MIC on agar, Lentinus tigrinus; type: cell-based; conditions: 336 h, beerwort/peptone agar, 28° C., 2 weeks
# Experimental: as §1
# Penicillium glaucum = experiment: MIC on agar, Penicillium glaucum; type: cell-based; conditions: 336 h, beerwort/peptone agar, 28° C., 2 weeks
# Experimental: as §1
# Polyporus versicolor = experiment: MIC on agar, Polyporus versicolor; type: cell-based; conditions: Trametes versicolor, 336 h, beerwort/peptone agar, 28° C., 2 weeks
# Experimental: as §1
# Sclerophoma pityophila = experiment: MIC on agar, Sclerophoma pityophila; type: cell-based; conditions: Sydowia polyspora, 336 h, beerwort/peptone agar, 28° C., 2 weeks
# Experimental: as §1
# Trichoderma viride = experiment: MIC on agar, Trichoderma viride; type: cell-based; conditions: 336 h, beerwort/peptone agar, 28° C., 2 weeks
# Experimental: as §1
# slime organisms = experiment: Action against slime organisms; type: cell-based; conditions: 504 h; slime organisms (about 10^6 germs/ml), Allens nutrient solution, room temperature, 3 weeks
# Experimental: N-(Dichlorofluoromethylthio)-3,4-dimethylmaleimide (dissolved in a little acetone) is used in concentrations of in each case 0.1 to 100 mg/l in Allens nutrient solution (Arch. Mikrobiol. 17, 34 to 53 (1952)), which contains, in 4 l of sterile water, 0.2 g of ammonium chloride, 4.0 g of sodium nitrate, 1.0 g of dipotassium hydrogen phosphate, 0.2 g of calcium chloride, 2.05 g of magnesium sulphate, 0.02 g of iron chloride and 1% of caprolactam. Shortly beforehand, the nutrient solutions are infected with slime organisms (about 10^6 germs/ml) which have been isolated from spinning water circulations used in the production of polyamide. Nutrient solutions which contain the minimum inhibitory concentration (MIC) or higher concentrations of active compound are still completely clear after culture at room temperature for 3 weeks, that is to say the marked increase in microbes and slime formation noticeable after 3 to 4 days in nutrient solutions containing no active compound are absent.
# [1] = system: Aspergillus niger, Aureobasidium pullulans, Alternaria tenuis, Penicillim citrinum, Stachybotrys atra, Paecilamyces varioti, Cladosporium herbarum, Aspergillus …; experiment: Test as a paint fungicide (mould-resistance of paint films, Report 219 of the Defense Standards Laboratories); conditions: alkyd resin lacquer paint containing 0.8% of compound based on weight of film; also after ageing (running water 24° C. 24 h, fresh air 40° to 60° C. 8 days, dry Xenon test 110 h); evaluated after 3 weeks at 28° to 30° C.
# Experimental: The testing is carried out in accordance with the method in Report 219 of the Defense Standards Laboratories Maribyrnong/Australia, as follows: A smooth card is coated on both sides with the paint to be tested and dried at room temperature for 8 days. For ageing, part of the paint film is kept in running water of 24° C. for 24 hours, or aerated with fresh air of 40° to 60° C. for 8 days, or subjected to a dry Xenon test for 110 hours. 5×5 cm sections of the samples thus prepared are placed individually on a glucose nutrient medium in Petri dishes and contaminated with a spore suspension of the following fungi: Aspergillus niger, Aureobasidium pullulans, Alternaria tenuis, Penicillim citrinum, Stachybotrys atra, Paecilamyces varioti, Cladosporium herbarum, Aspergillus ustus and Aspergillus flavus.
# The contaminated dishes are kept at 28° to 30° C. and 90 to 95% relative atmospheric humidity, and are evaluated after 3 weeks. Paint films are regarded as mould-resistant if the samples remain free from fungi after these tests.
# A commercially available lacquer paint based on alkyd resin is tested for mould-resistance by the above-mentioned test method.
compound,measurement,setting,value
"CC1=C(C)C(=O)N(SC(F)(Cl)Cl)C1=O [N-(dichlorofluoromethylthio)-3,4-dimethylmaleimide]",MIC,Alternaria tenuis,0.75 µg/mL
same,MIC,Aspergillus niger,50 µg/mL
same,MIC,Aureobasidium pullulans,0.5 µg/mL
same,MIC,Chaetomium globosum,50 µg/mL
same,MIC,Coniophora puteana,0.75 µg/mL
same,MIC,Lentinus tigrinus,1.5 µg/mL
same,MIC,Penicillium glaucum,5 µg/mL
same,MIC,Polyporus versicolor,7.5 µg/mL
same,MIC,Sclerophoma pityophila,1 µg/mL
same,MIC,Trichoderma viride,100 µg/mL
same,MIC,slime organisms,7.5 µg/mL
same,mould-resistance of paint films,[1],mould-resistant
